Values quoted from earlier work as cited in patent US20250066691A1, “SOLVENT-BASED DETERGENT COMPOSITIONS AND METHODS FOR HYDROPHOBIC SOIL REMOVAL” (ECOLAB USA INC., priority 2023, published 2025).
Where a name gives a salt, the structure may show the parent alone.

Conditions: obtained from PubChem

LogP | Topological Polar Surface Area (Å^2) | Structure (SMILES)
2.5 | 29.5 | CCCCC(CC)COCCO (stereo not shown) [2-2(2-Ethylhexyloxy)ethanol]
3 | 46.5 | CCCCC(CC)COC(=O)[C@H](C)O (stereo partly drawn) [2-Ethylhexyl Lactate, 2-Ethylhexyl L-Lactate]
– | 20.2 | OCc1ccccc1 [Benzyl Alcohol]
– | 38.7 | CCCCCCOCCOCCO [Diethylene glycol monohexyl ether]
3.2 | 52.6 | CC(C)COC(=O)CCCCC(=O)OCC(C)C [Diisobutyl Adipate]
5.1 | 20.2 | CCCCCCCCCCCCO [Dodecanol (Lauryl Alcohol), Dodecanol]
0.2 | 46.5 | CCOC(=O)C(C)O (stereo not shown) [Ethyl Lactate]
0.2 | 78.9 | CC(=O)OCC(COC(C)=O)OC(C)=O [Glycerol Triacetate]
– | 20.2 | CCCCCCO [Hexanol]
– | 37.3 | CCCCCCCC(=O)O [Octanoic acid]
1.7 | 38.7 | CC(O)COc1ccccc1 (stereo not shown) [Propylene glycol phenyl ether]
0.1 | 99.1 | CCOC(=O)CC(O)(CC(=O)OCC)C(=O)OCC [Triethyl Citrate]
2.9 | 47.9 | CCCCOC(C)COC(C)COC(C)CO (stereo not shown) [Tripropylene glycol butyl ether]

Structure (SMILES) | LogP | Topological Polar Surface Area (Å^2)
C=C(C)[C@H]1CC=C(C)CC1 [Limonene] | 3.4 | 0
Cc1ccccc1 [Toluene] | – | 0
